For this assay, the target named is truncated Polθ protein (Polθ-Hel containing the helicase domain (67-894)) (Homo sapiens (Human), UniProt O75417). The assay can be described thus: Polθ ATPase assay (Biological Assay 1, ADP-Glo luminescence). The assay is classed as biochemical. How it is done:
The Polθ ATPase assay was used to evaluate inhibitors of Polθ ATPase activity, in vitro. Experiments were performed using a truncated Polθ protein (Polθ-Hel containing the helicase domain (67-894), ATP and a DNA single strand Oligo (5′-CTGTCCTGCATGATG-3′) in the Polθ assay buffer (20 mM Tris-HCl (pH 8.8), MgCl2 5 mM, tween20 0.01%, NP40 0.01%, BSA 0.01%, DTT 1 mM). 2 μL of assay buffer containing Polθ-Hel protein (0.5 nM) and DNA substrate (500 nM) was transferred into assay ready plates, containing 0.04 μL of compounds diluted in DMSO. After a 30 minutes incubation at 23° C. in the dark, the reaction was triggered by adding 2 μL of ATP (60 μM), in assay buffer. After 60 minutes at 23° C., 4 μl of ADP-Glo™ Reagent (Glo 1) was added followed by 40 minutes of incubation, then 8 μl of ADP-Glo™ kinase Detection Reagent (Glo 2) followed by 60 minutes of incubation at 23° C. Luminescence was then measured using Tecan F200 infinite plate reader. Raw data were analysed using GeneData to generate IC50 values.
The Polθ ATPase assay described in Biological Assay 1 above was used to evaluate inhibitors of Polθ ATPase activity for the compounds described in the Experimental Part B above, in vitro.

Setting [1] is: Table A, Polθ-Hel 0.5 nM, DNA substrate 500 nM, ATP 60 μM.

As usually defined, the IC50 is the midpoint of a concentration-inhibition curve. A low value points to greater potency in that assay.

truncated Polθ protein (Polθ-Hel containing the helicase domain (67-894)), sequence (O75417 67-894): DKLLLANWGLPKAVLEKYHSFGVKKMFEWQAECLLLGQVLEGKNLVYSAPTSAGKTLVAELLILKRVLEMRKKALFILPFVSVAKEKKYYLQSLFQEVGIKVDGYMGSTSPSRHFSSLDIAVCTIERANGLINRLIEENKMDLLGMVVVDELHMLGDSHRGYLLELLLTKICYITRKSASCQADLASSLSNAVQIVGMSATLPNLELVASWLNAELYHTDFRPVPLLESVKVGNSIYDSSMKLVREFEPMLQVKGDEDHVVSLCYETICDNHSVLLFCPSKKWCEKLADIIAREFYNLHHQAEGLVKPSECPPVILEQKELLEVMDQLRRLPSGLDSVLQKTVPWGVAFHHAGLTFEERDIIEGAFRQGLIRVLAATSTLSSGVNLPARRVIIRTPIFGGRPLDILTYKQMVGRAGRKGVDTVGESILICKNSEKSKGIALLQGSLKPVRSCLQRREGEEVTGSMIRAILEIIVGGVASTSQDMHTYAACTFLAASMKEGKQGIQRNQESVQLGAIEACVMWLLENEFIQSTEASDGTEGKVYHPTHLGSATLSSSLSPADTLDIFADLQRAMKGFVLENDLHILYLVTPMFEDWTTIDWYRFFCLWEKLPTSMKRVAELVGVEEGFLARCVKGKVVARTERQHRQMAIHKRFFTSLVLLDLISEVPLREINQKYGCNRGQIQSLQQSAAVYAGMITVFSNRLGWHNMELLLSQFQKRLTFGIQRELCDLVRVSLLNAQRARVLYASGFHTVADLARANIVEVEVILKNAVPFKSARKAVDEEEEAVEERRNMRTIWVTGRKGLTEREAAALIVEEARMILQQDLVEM

Regarding `COc1cnc(Cl)cc1-c1cc(C)ncc1C(=O)Nc1nc2ccc(I)cc2s1` [Example 4, 2′-chloro-N-(6-iodo-1,3-benzothiazol-2-yl)-5′-methoxy-6-methyl-[4,4′-bipyridine]-3-carboxamide], under setting [1], the IC50 is < 100 nM.
The same measure, in the same setting: the figure for `COc1ccccc1-c1cnccc1C(=O)Nc1nc2ccccc2s1` [Example 15, N-(1,3-benzothiazol-2-yl)-3-(2-methoxyphenyl) pyridine-4-carboxamide] is > 1000 nM; for `COc1cnc(Cl)cc1-c1cc(C)ncc1C(=O)Nc1nc2cnc(N3CCC(O)CC3)cc2s1` [Example 68, 2′-chloro-N-[6-(4-hydroxypiperidin-1-yl)-[1,3]thiazolo[4,5-c]pyridin-2-yl]-5′-methoxy-6-methyl-[4,4′-bipyridine]-3-carboxamide] it is < 100 nM.
Turning to `COc1cnc(Cl)cc1-c1cc(C)ncc1C(=O)Nc1nc2cnc(N3CC(OC)C3)cc2s1` [Example 129, 2′-chloro-5′-methoxy-N-[6-(3-methoxyazetidin-1-yl)-[1,3]thiazolo[4,5-c]pyridin-2-yl]-6-methyl-[4,4′-bipyridine]-3-carboxamide], the IC50 (Table B (Part B compounds), same assay as Biological Assay 1) is < 100 nM.

The values are drawn from patent US12145945B2, “Compounds, compositions, and therapeutic uses thereof” (Breakpoint Therapeutics GmbH, priority 2023, dated 2024).
